The subject of one test is Leishmania braziliensis. Kind of test: Antileishmanial activity against promastigote form of Leishmania braziliensis assessed as parasite growth inhibition. Type of test: functional.
In test [1] the test system is Mycobacterium tuberculosis. Kind of test: Antimycobacterial activity against Mycobacterium tuberculosis H37Rv assessed as bacterial growth inhibition by microplate alamar blue assay. The test is classed as functional. For orientation: The colour change of resazurin is a common sign of viable cells or microbes.
The next test concerns Plasmodium falciparum. Kind of test: Antimalarial activity against chloroquine-resistant Plasmodium falciparum assessed as parasite growth inhibition measured for 24 to 72 hrs. Type of test: functional, organism-based.

For six molecules, IC90, MIC and IC50 results are on record in ChEMBL document CHEMBL5096154, “A comprehensive review on the biological interest of quinoline and its derivatives” (Bioorg Med Chem, 2021).

Values after ≈ are worked out from the molar mass of the structure shown.

One may read the IC90 as the concentration needed for an effect of 90%. As a reminder, the MIC is the lowest concentration found to suppress growth. One may read the IC50 as the concentration needed to halve the response being measured.

For the molecule `CC1OC1c1ccc2ccccc2n1` (stereo unspecified), the IC90 in the test on Leishmania braziliensis worked out at 25 µg/mL (≈ 135 µM).
Still for that read-out and setting: as for `CCCc1ccc2ccccc2n1`, the figure is 20 µg/mL (≈ 117 µM).
Take `COc1ccc(-c2nc3ncccc3c3ccoc23)cc1`: the MIC in test [1] worked out at 5.6 µM.
On to `CN1c2ccccc2CCC1CCc1ccc2c(c1)OCO2` (stereo unspecified), for which the IC50 in the test with Plasmodium falciparum turned out to be 276 nM.
Consider `C/C=C/c1ccc2ccccc2n1` [CHIMANINE B], for which the 90% effect concentration (IC90) in the test with Leishmania braziliensis was found to be 25 µg/mL (≈ 148 µM).
Consider `CC[C@@H](CO)NCCN[C@@H](CC)CO` [ETHAMBUTOL], for which the MIC in test [1] came out at 7.6 µM.
